Data on one molecule can be found in paper PMC7182988 (Saudi Journal of Biological Sciences, 2020).

Entries after “also recorded” stand apart in the source; their conditions may differ.

As usually defined, the inhibition is the change of the read-out against control, counted positive when it falls.

For test [1], the system named is LPS-induced IL-6 in WI-38 fibroblast cells. The test is described as follows: ELISA assay for IL-6 release in LPS-stimulated cells. Type of test: cell-based. Particulars: LPS-stimulated WI-38 fibroblast cells. For orientation: In an ELISA, binding on a coated surface is turned into a signal by an enzyme label.
Another test concerns the target T1, human recombinant COX-2 (Homo sapiens, UniProt P35354).
T1 sequence (P35354 18-604): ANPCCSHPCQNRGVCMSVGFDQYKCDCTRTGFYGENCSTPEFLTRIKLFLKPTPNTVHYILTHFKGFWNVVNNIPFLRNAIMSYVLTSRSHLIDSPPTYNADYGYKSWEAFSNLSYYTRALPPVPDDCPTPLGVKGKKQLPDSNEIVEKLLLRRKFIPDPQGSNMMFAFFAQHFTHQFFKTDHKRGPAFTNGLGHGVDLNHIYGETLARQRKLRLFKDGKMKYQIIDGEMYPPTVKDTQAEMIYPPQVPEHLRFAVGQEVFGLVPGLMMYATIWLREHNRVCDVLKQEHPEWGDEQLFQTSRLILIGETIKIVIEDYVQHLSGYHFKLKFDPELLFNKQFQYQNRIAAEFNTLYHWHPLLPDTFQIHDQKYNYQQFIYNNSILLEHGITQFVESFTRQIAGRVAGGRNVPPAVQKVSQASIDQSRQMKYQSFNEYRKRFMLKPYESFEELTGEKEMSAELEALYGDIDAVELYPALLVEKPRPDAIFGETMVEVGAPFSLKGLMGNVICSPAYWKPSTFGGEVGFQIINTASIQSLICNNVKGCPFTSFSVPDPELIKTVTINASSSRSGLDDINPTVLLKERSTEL
The experiment in a line: COX-2. Type of test: biochemical. Particulars: read-out: COX-2% (percentage of inhibition of COX-2).

In the next test the target is human recombinant COX-1 (Homo sapiens, UniProt P23219). The experiment in a line: COX-1. Particulars: read-out: COX-1% (percentage of inhibition of COX-1). Type of test: biochemical.
In test [2] the test system is LPS-induced TNF-α in WI-38 fibroblast cells. The experiment in a line: ELISA assay for TNF-α release in LPS-stimulated cells. Type of test: cell-based. Particulars: LPS-stimulated WI-38 fibroblast cells.

Sequence of human recombinant COX-1 (P23219 24-599): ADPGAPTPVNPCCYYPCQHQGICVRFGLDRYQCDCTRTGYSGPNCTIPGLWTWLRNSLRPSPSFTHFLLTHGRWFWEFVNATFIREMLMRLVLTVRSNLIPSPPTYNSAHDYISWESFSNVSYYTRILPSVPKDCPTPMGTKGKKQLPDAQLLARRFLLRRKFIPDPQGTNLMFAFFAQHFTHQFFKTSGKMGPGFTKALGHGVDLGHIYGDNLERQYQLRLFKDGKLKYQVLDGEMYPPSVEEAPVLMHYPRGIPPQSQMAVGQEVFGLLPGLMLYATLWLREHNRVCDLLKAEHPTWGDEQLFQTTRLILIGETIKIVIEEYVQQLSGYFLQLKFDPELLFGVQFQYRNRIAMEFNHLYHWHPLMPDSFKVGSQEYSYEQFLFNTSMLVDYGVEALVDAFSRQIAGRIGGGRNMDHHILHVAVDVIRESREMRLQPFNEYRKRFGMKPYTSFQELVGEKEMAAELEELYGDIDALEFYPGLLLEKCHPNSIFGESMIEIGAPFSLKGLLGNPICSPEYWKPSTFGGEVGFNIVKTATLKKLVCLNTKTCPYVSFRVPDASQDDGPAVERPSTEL

On to `O=C(c1ccc(C(F)(F)F)cc1)C1C(c2cc3ccccc3o2)C2C3CCCCC3CN2[C@@]12C(=O)Nc1ccc(Br)cc12` (stereo partly drawn) [Compound 5k, (3S)-1'-(Benzofuran-2-yl)-5-bromo-2'-(4-(trifluoromethyl)benzoyl)-1',2',5',5a',6',7',8',9',9a',9b'-decahydro-spiro[indoline-3,3'-pyrrolo[2,1-a]isoindol]-2-one], for which the “inhibition of IL-6 release (in words)” value in test [1] is recorded as “markedly inhibited; also recorded: most effective; also recorded: high potency”. Moreover, the inhibition at 40 µg/mL on human recombinant COX-2 is 4.45%; at human recombinant COX-1, 12.3%. Further, in test [2], the “inhibition of TNF-α release (in words)” value is on record as “markedly inhibited; also recorded: most effective; also recorded: high potency”.
